The text below walks through data of publication PMC8605905 (Oxidative Medicine and Cellular Longevity, 2021).

The subject of data set [1] is CRE-GFP 293 cells. Description: CRE-GFP 293 reporter cell assay (flow cytometry). Type of data set: cell-based, Human. As to conditions: 0.5–2 μM for 5 h. The text has this: Using the pCRE-MetLuc2-Reporter plasmid (Clontech, Mountain View, CA, USA) as a template, the DNA fragment containing the cAMP response element (CRE) motifs and TATA-like promoter (PTAL) flanked by MluI and AgeI restriction sites was amplified by PCR using sense ([…], MluI site underlined) and antisense ([…], AgeI site underlined) primers. The amplified CRE-PTAL promoter fragment was cloned into pGEM-T Easy (Promega, Madison, WI, USA) and sequenced. The CRE-PTAL-containing MluI/AgeI fragment and GFP-containing AgeI/NotI fragment (from pEGFP-N1; Clontech) were subcloned into MluI- and NotI-digested pcDNA5/FRT/TO (Novagen, Madison, WI, USA). The resulting construct with CRE-PTAL-driving GFP was used to establish 293 GFP reporter cells by targeting insertion into Flp-In-293 cells according to the supplier's instructions (Invitrogen). The cells were grown in a medium containing 5 μg/ml blasticidin and 100 μg/ml hygromycin.
(§1) On day 1, CRE-GFP 293 cells were seeded into 48-well plates (5 × 10^4/well). After 24 h, cells were treated with Ca^2+ ionophore (2 μM) (Sigma-Aldrich) for 0–24 h. Cell viability was measured using 3,(4,5-dimethylthiazol-2-yl)-2,5-diphenyltetrazolium bromide (MTT) assay (Sigma-Aldrich). The absorbance of the insoluble purple formazan dye was quantified at 570 nm on a μQuant microplate spectrophotometer (Bio-Tek). In addition, the cells were treated with the Ca^2+ ionophore A23187 (0.5–10 μM) (Sigma-Aldrich) for 5 h, followed by analysis of GFP fluorescence by flow cytometry (Becton–Dickinson, Franklin Lakes, NJ, USA) with excitation/emission wavelengths at 488/507 nm. To monitor CREB activation, cells were treated with forskolin or coumarin-chalcone derivatives (5–10 μM) in the presence or absence of Ca^2+ ionophore (2 μM) for 5 h, and GFP fluorescence was analysed.
To monitor the cAMP-mediated signal transduction pathway, CRE-GFP 293 cells in 6-well plates (1 × 10^6/well) were pretreated with kinase inhibitor H-89 (LC Laboratories, Woburn, MA, USA), KN-62 (Cayman Chemical, Ann Arbor, MI, USA), U0126 (LC Laboratories), or wortmannin (LC Laboratories) (10 μM) for 4 h before forskolin or LM-021 (10 μM) addition for 5 h. GFP fluorescence/protein and total/phosphorylated PKA, CaMKII, ERK, PI3K, and CREB levels were examined. In addition, Aβ-GFP or ∆K280 tauRD-DsRed SH-SY5Y cells were treated with retinoic acid (10 μM) on day 1, followed by the addition of LM-021 (5 or 10 μM) and doxycycline (5 or 2 μg/ml) on day 2, as described. Kinase inhibitors (10 μM) were added on day 6. On day 8, the cells were collected for protein expression analysis of BDNF, BCL2 (BCL2 apoptosis regulator), and BAX (BCL2 associated X, apoptosis regulator), and total/phosphorylated PKA, CaMKII, ERK, PI3K, and CREB. Also, cells were stained with DAPI and assessed for neurite outgrowth as described above.
For orientation: Flow cytometry measures light scatter and fluorescence of single cells or particles in a stream.

The subject of data set [2] is CRE-GFP 293 cells. The data set is described as follows: MTT cell viability of CRE-GFP 293 cells. Type of data set: cell-based, Human. As to conditions: 2 μM for 3–6 h. On the procedure: as §1
The conditions of data set [3]: in vivo, po; cited from earlier work.

With `CNc1ccc2oc(C[C@H]3O[C@@]4(CC[C@H]3C)O[C@H]([C@H](C)C(=O)c3ccc[nH]3)[C@H](C)C[C@H]4C)nc2c1C(=O)O` [Ca^2+ ionophore], in data set [1], the “CRE-motif-driven GFP expression” value was “stimulated”. Also, the “Cell viability (MTT)” value in data set [2] was “No significant cell death”.

Consider `N[C@@H](Cc1ccc(O)c(O)c1)C(=O)O` [levodopa], for which the “Share of orally administered dose that enters the brain” value in data set [3] is “about 1%”.
